Data: ChEMBL document CHEMBL5380773, “Novel Feleucin-K3-Derived Peptides Modified with Sulfono-γ-AA Building Blocks Targeting Pseudomonas aeruginosa and Methicillin-Resistant Staphylococcus aureus Infections” (J Med Chem, 2023)
Numbered stars: 1 amine (or outer) side, 2 acyl side, 3 side chain; on linkers, the order of the positions; unused ones are H or OH. Square brackets hold non-standard residues; d marks the D form. Peptide text beside a SMILES is read from it. * marks the point of attachment. X23 = NC(=O)CN(C[C@H](Cc1ccccc1)N*)S(=O)(=O)c1ccc(F)cc1; X24 = Cc1ccc(S(=O)(=O)N(CC(N)=O)C[C@H](Cc2ccccc2)N*)cc1; X25 = CC(C)C[C@@H](CN(CC(N)=O)S(=O)(=O)c1cccc(Cl)c1)N*; X22 = CC(C)C[C@@H](CN(CC(N)=O)S(=O)(=O)c1ccc(F)cc1)N*; X27 = Cc1ccc(S(=O)(=O)N(CC(N)=O)C[C@H](CC(C)C)N*)cc1; X5 = CC(C)c1cc(C(C)C)c(S(=O)(=O)*)c(C(C)C)c1; X3 = N[C@@H](Cc1ccccc1)CN(CC(=O)[*:2])[*:1]; X2 = CC(C)C[C@H](N)CN(CC(=O)[*:2])[*:1]; X10 = O=[N+]([O-])c1ccc(S(=O)(=O)*)cc1; X20 = O=S(=O)(c1ccc(Cl)cc1)*; Tos = Cc1ccc(S(=O)(=O)*)cc1; X4 = O=S(=O)(c1cccc(Cl)c1)*; X1 = O=S(=O)(c1ccc(I)cc1)*

System: Erythrocyte
Assay: Hemolytic activity against mouse red blood cells incubated for 1 hr
Type: toxicity, cell-based

`CC(C)C[C@@H](CN(CC(N)=O)S(=O)(=O)c1ccc(F)cc1)NC(=O)[C@H](CCCCN)NC(=O)[C@H](CCCCN)NC(=O)[C@H](CC(C)C)NC(=O)[C@H](CC(C)C)NC(=O)[C@H](CCCCN)NC(=O)[C@H](CC(C)C)NC(=O)[C@@H](N)Cc1ccccc1` (H-FLKLLKK-X22) was tested. Which MHC did it give?
The MHC was 256 µg/mL.

How did the MHC turn out when `CC(C)C[C@H](NC(=O)[C@H](CC(C)C)NC(=O)[C@H](CCCCN)NC(=O)[C@H](CC(C)C)NC(=O)[C@@H](N)Cc1ccccc1)C(=O)N[C@@H](CCCCN)C(=O)N[C@@H](CCCCN)C(=O)N[C@@H](Cc1ccccc1)CN(CC(N)=O)S(=O)(=O)c1ccc(F)cc1` (H-FLKLLKK-X23) was run?
The MHC was 256 µg/mL.

For `Cc1ccc(S(=O)(=O)N(CC(N)=O)C[C@H](Cc2ccccc2)NC(=O)[C@H](CCCCN)NC(=O)[C@H](CCCCN)NC(=O)[C@H](CC(C)C)NC(=O)[C@H](CC(C)C)NC(=O)[C@H](CCCCN)NC(=O)[C@H](CC(C)C)NC(=O)[C@@H](N)Cc2ccccc2)cc1` (H-FLKLLKK-X24), which MHC is on record?
Its MHC is 256 µg/mL.

For `CC(C)C[C@@H](CN(CC(N)=O)S(=O)(=O)c1cccc(Cl)c1)NC(=O)[C@H](CCCCN)NC(=O)[C@H](CCCCN)NC(=O)[C@H](CC(C)C)NC(=O)[C@H](CC(C)C)NC(=O)[C@H](CCCCN)NC(=O)[C@H](CC(C)C)NC(=O)[C@@H](N)Cc1ccccc1` (H-FLKLLKK-X25), which MHC is on record?
The MHC was 256 µg/mL.

`Cc1ccc(S(=O)(=O)N(CC(N)=O)C[C@H](CC(C)C)NC(=O)[C@H](CCCCN)NC(=O)[C@H](CCCCN)NC(=O)[C@H](CC(C)C)NC(=O)[C@H](CC(C)C)NC(=O)[C@H](CCCCN)NC(=O)[C@H](CC(C)C)NC(=O)[C@@H](N)Cc2ccccc2)cc1` (H-FLKLLKK-X27) was tested. Which MHC did it give?
Its MHC is 256 µg/mL.

For `Cc1ccc(S(=O)(=O)N(CC(=O)N[C@@H](CCCCN)C(=O)N[C@@H](CC(C)C)C(=O)N[C@@H](CC(C)C)C(=O)N[C@@H](CCCCN)C(=O)N[C@@H](CCCCN)C(=O)N[C@@H](CC(C)C)C(=O)N[C@@H](CC(C)C)C(N)=O)C[C@@H](N)CC(C)C)cc1` (Tos-[X2]KLLKKLL-NH2), which MHC is on record?
The MHC was 32 µg/mL.

With `CC(C)C[C@H](NC(=O)[C@H](CC(C)C)NC(=O)[C@H](CCCCN)NC(=O)[C@H](CCCCN)NC(=O)[C@H](CC(C)C)NC(=O)[C@H](CC(C)C)NC(=O)[C@H](CCCCN)NC(=O)CN(C[C@@H](N)Cc1ccccc1)S(=O)(=O)c1ccc(I)cc1)C(N)=O` (X1-[X3]KLLKKLL-NH2) as the compound, how does the MHC read?
The MHC was 32 µg/mL.

How did the MHC turn out when `CC(C)C[C@H](N)CN(CC(=O)N[C@@H](CCCCN)C(=O)N[C@@H](CC(C)C)C(=O)N[C@@H](CC(C)C)C(=O)N[C@@H](CCCCN)C(=O)N[C@@H](CCCCN)C(=O)N[C@@H](CC(C)C)C(=O)N[C@@H](CC(C)C)C(N)=O)S(=O)(=O)c1cccc(Cl)c1` (X4-[X2]KLLKKLL-NH2) was run?
The MHC was 256 µg/mL.

With `CC(C)C[C@H](NC(=O)[C@H](CC(C)C)NC(=O)[C@H](CCCCN)NC(=O)[C@H](CCCCN)NC(=O)[C@H](CC(C)C)NC(=O)[C@H](CC(C)C)NC(=O)[C@H](CCCCN)NC(=O)CN(C[C@@H](N)Cc1ccccc1)S(=O)(=O)c1cccc(Cl)c1)C(N)=O` (X4-[X3]KLLKKLL-NH2) as the compound, how does the MHC read?
Its MHC is 128 µg/mL.

`CC(C)C[C@H](N)CN(CC(=O)N[C@@H](CCCCN)C(=O)N[C@@H](CC(C)C)C(=O)N[C@@H](CC(C)C)C(=O)N[C@@H](CCCCN)C(=O)N[C@@H](CCCCN)C(=O)N[C@@H](CC(C)C)C(=O)N[C@@H](CC(C)C)C(N)=O)S(=O)(=O)c1c(C(C)C)cc(C(C)C)cc1C(C)C` (X5-[X2]KLLKKLL-NH2) was tested. Which MHC did it give?
Its MHC is 32 µg/mL.

`CC(C)C[C@H](NC(=O)[C@H](CC(C)C)NC(=O)[C@H](CCCCN)NC(=O)[C@H](CCCCN)NC(=O)[C@H](CC(C)C)NC(=O)[C@H](CC(C)C)NC(=O)[C@H](CCCCN)NC(=O)CN(C[C@@H](N)Cc1ccccc1)S(=O)(=O)c1c(C(C)C)cc(C(C)C)cc1C(C)C)C(N)=O` (X5-[X3]KLLKKLL-NH2) was tested. Which MHC did it give?
The MHC was 16 µg/mL.

How did the MHC turn out when `CC(C)C[C@H](N)CN(CC(=O)N[C@@H](CCCCN)C(=O)N[C@@H](CC(C)C)C(=O)N[C@@H](CC(C)C)C(=O)N[C@@H](CCCCN)C(=O)N[C@@H](CCCCN)C(=O)N[C@@H](CC(C)C)C(=O)N[C@@H](CC(C)C)C(N)=O)S(=O)(=O)c1ccc([N+](=O)[O-])cc1` (X10-[X2]KLLKKLL-NH2) was run?
The MHC was 256 µg/mL.

Which MHC does the source give for `CC(C)C[C@H](NC(=O)[C@H](CC(C)C)NC(=O)[C@H](CCCCN)NC(=O)[C@H](CCCCN)NC(=O)[C@H](CC(C)C)NC(=O)[C@H](CC(C)C)NC(=O)[C@H](CCCCN)NC(=O)CN(C[C@@H](N)Cc1ccccc1)S(=O)(=O)c1ccc([N+](=O)[O-])cc1)C(N)=O` (X10-[X3]KLLKKLL-NH2) here?
Its MHC is 256 µg/mL.

How did the MHC turn out when `CC(C)C[C@H](N)CN(CC(=O)N[C@@H](CCCCN)C(=O)N[C@@H](CC(C)C)C(=O)N[C@@H](CC(C)C)C(=O)N[C@@H](CCCCN)C(=O)N[C@@H](CCCCN)C(=O)N[C@@H](CC(C)C)C(=O)N[C@@H](CC(C)C)C(N)=O)S(=O)(=O)c1ccc(Cl)cc1` (X20-[X2]KLLKKLL-NH2) was run?
Its MHC is 256 µg/mL.

`CC(C)C[C@H](NC(=O)[C@H](CC(C)C)NC(=O)[C@H](CCCCN)NC(=O)[C@H](CCCCN)NC(=O)[C@H](CC(C)C)NC(=O)[C@H](CC(C)C)NC(=O)[C@H](CCCCN)NC(=O)CN(C[C@@H](N)Cc1ccccc1)S(=O)(=O)c1ccc(Cl)cc1)C(N)=O` (X20-[X3]KLLKKLL-NH2) was tested. Which MHC did it give?
The MHC was 64 µg/mL.
